From patent US10815231B2, “[1,2,4] triazolo [1,5-a] pyridine derivative and crystalline form thereof” (WEST CHINA HOSPITAL, SICHUAN UNIVERSITY, priority 2016, dated 2020)
Values joined by “and” are separate entries in the source; they are usually repeats but may differ in a detail not shown here. Equal entries are not always repeated.

Columns and labels:
[1] = test system: A549 cells; assay: MTT detection method, inhibitory effect against A549 cells; format: cell-based; conditions: 5000 cells/well, treatment 48 h; for The mean inhibitory ratio (%): mean of three; for The inhibitory ratio (%) for three parallel assays: single parallel assays
From the text: (§1) MTT detection method was used, and MTT is a yellow compound and a dye accepting hydrogen ions, and can be used as the respiratory chain in mitochondria of viable cells. Under the action of succinate dehydrogenase and cytochrome C, the tetrazolium ring broke to form blue formanzan crystal, and the formation amount of formanzan crystal was only directly proportional to the viable counts. The formanzan crystal formed by reduction can dissolve in dimethyl sulfoxide (DMSO), and the optical density (OD) value can be determined at 490 nm using ELISA, to reflect the viable counts.
(§2) Lung cancer cell lines: A549 and H1299.
(§3) Experimental materials: lung cancer cell lines, instruments and tools for cell culture, MTT, and the compound mother liquid (10 mmol/L).
(§4) (3-1) Cell lines A549 and H1299 were recovered, and when the cells were in good conditions, namely cells grew to about 80% after one passage (i.e. the logarithmic growth phase), the cells were planked (96-well plate).
(§5) (3-2) Firstly, cells were collected, and the concentration of cell suspension was adjusted with counting chamber. Cells were seeded in 96-well plate at 1000-10000 cells/well, and the detailed cell numbers in each well were dependent on the growth rate of different cells and the action time of drugs. A549 cells were seeded at 5000 cells, while H1299 cells were also seeded at 5000 cells, 200 μl for each well (100 μl cell suspension+100 μl drug dilution at different concentration gradient). The edge wells (36) were added 200 μl culture media (for prevention of edge effect).
(§6) (3-3) After planking and adding drugs, the plate was treated at 24 h, 48 h, and 72 h, and then for coloration, each well was added 200 μl culture media containing 20 μl MTT solution (5 mg/mL). The plate was continually cultured for 1-4 hours, and the culture supernatant fluid in each well was carefully absorbed. For suspension cells, the culture supernatant fluid in each well need be centrifuged before drawing. 150 μl DMSO was added to each well, and the plate was shaken on a shaking table for 15-20 min, to allow the crystals to be completely dissolved.
(§7) (3-4) Colorimetry: The colorimetry was performed by ELISA, and the optical absorption value of each well was tested at a wavelength of 490 nm or 570 nm, and the result was recorded.
(§8) (3-5) Calculation Inhibition ratio=(the control−the drug)/the control×100%
(§9) IC50 (50% inhibitory concentration) can be calculated by spass software based on the inhibitory ratio at different concentration.

[2] = test system: H1299 cells; assay: MTT detection method, inhibitory effect against H1299 cells; format: cell-based; conditions: 5000 cells/well, treatment 48 h; for The mean inhibitory ratio (%): mean of three; for The inhibitory ratio (%) for three parallel assays: single parallel assays
From the text: as §1, §2, §3, §4, §5, §6, §7, §8, §9

SMILES	The mean inhibitory ratio (%) ([1]; 25 μm)	The inhibitory ratio (%) for three parallel assays ([1]; 25 μm)	The mean inhibitory ratio (%) ([1]; 40 μm)	The inhibitory ratio (%) for three parallel assays ([1]; 40 μm)	The mean inhibitory ratio (%) ([1]; 50 μm)	The inhibitory ratio (%) for three parallel assays ([1]; 50 μm)	The mean inhibitory ratio (%) ([2]; 50 μm)	The inhibitory ratio (%) for three parallel assays ([2]; 50 μm)	The mean inhibitory ratio (%) ([2]; 80 μm)	The inhibitory ratio (%) for three parallel assays ([2]; 80 μm)	The mean inhibitory ratio (%) ([2]; 100 μm)	The inhibitory ratio (%) for three parallel assays ([2]; 100 μm)	The mean inhibitory ratio (%) ([1]; 100 μm)	The inhibitory ratio (%) for three parallel assays ([1]; 100 μm)	The mean inhibitory ratio (%) ([2]; 25 μm)	The inhibitory ratio (%) for three parallel assays ([2]; 25 μm)
N#Cc1nc2cccc(-c3ccc(CN4CCOCC4)cc3)n2n1 [Compound 3, 2-cyano-5-[4-(4-morpholinylmethyl)phenyl]-[1,2,4]triazolo[1,5-a]pyridine]	22	20% and 26%	22	22% and 24% and 20%	25	24% and 27%	32	33% and 32%	32	32%	34	33% and 34% and 35%	–	–	–	–
Nc1nc2cccc(-c3ccc(CN4CCOCC4)cc3)n2n1 [Compound 1, 2-amino-5-[4-(4-morpholinylmethyl)phenyl]-[1,2,4]triazolo[1,5-a]pyridine]	10	10% and 9%	–	–	29	28% and 31% and 29%	95	93% and 94% and 97%	–	–	85	86% and 84%	31	31% and 30%	62	63% and 61%
Ic1nc2cccc(-c3ccc(CN4CCOCC4)cc3)n2n1 [Compound 2, 2-iodo-5-[4-(4-morpholinylmethyl)phenyl]-[1,2,4]triazolo[1,5-a]pyridine]	27	26% and 25% and 30%	22	21% and 22%	24	23% and 27%	31	32% and 31% and 29%	33	33% and 32%	31	32% and 29%	–	–	–	–
